Assay results as given in patent US20260327191A1, “GSK3a INHIBITORS AND METHODS OF USE THEREOF” (Blueprint Medicines Corporation, priority 2023, published 2026).
Like-named read-outs stand apart in the source and are kept apart here.

How the values were obtained:
human GSK3α = molecular target: T1, human GSK3α (Homo sapiens, UniProt P49840); assay: In vitro enzymatic activity assay, GSK3α; type: biochemical; details: 1.0 mM ATP, 1.0 μM peptide substrate, 120 min, 25° C
T1 construct: Full length human GSK3α or GSK3B expressed as N-terminal GST fusion proteins; GST (N); purchased Carna Biosciences (Japan); host or cells: baculovirus host

GSK3A = molecular target: T2, GSK3A (Homo sapiens, UniProt P49840); assay: NanoBRET cellular target engagement assay, Nanoluc-GSK3A in HEK293 cells; type: cell-based; details: NanoBRET GSK3α IC50, HEK293 cells, tracer K-8, 2 hours, 37° C
T2 construct: expressed in transfected cells

GSK3B [1] = molecular target: T3, GSK3B (Homo sapiens, UniProt P49841); assay: NanoBRET cellular target engagement assay, Nanoluc-GSK3B in HEK293 cells; type: cell-based; set-up: expressed in transfected cells; details: NanoBRET GSK3β IC50, HEK293 cells, tracer K-8, 2 hours, 37° C
GSK3B [2] = molecular target: T3, GSK3B; assay: In vitro enzymatic activity assay, GSK3β; type: biochemical; set-up: Full length human GSK3α or GSK3B expressed as N-terminal GST fusion proteins; GST (N); purchased Carna Biosciences (Japan); host or cells: baculovirus host; details: 1.0 mM ATP, 1.0 μM peptide substrate, 120 min, 25° C

T3 sequence (P49841 whole entry, the tested form may be a part): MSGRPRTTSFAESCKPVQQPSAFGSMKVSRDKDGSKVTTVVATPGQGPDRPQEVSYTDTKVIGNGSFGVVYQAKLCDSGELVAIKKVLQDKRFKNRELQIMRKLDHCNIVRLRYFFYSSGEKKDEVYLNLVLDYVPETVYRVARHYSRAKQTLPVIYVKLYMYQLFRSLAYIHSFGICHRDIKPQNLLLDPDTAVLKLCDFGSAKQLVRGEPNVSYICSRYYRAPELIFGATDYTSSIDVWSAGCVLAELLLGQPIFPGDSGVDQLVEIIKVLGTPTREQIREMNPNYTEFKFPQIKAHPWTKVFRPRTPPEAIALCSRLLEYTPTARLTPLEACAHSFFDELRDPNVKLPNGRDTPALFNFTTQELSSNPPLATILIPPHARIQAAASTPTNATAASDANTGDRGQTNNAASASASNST
T2 sequence (P49840 whole entry): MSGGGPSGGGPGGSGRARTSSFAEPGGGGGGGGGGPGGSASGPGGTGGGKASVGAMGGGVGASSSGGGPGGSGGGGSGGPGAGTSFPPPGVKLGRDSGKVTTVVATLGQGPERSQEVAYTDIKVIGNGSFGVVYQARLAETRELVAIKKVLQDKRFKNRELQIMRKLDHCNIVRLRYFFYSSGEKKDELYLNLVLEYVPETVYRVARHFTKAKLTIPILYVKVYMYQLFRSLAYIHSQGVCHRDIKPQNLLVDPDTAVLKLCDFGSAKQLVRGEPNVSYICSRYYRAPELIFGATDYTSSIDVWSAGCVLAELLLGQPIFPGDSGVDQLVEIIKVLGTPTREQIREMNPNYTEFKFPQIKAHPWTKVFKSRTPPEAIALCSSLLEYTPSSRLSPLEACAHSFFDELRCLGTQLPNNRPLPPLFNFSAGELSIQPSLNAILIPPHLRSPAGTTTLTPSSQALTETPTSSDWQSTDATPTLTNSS
T1 sequence (P49840 whole entry, the tested form may be a part): as the sequence (P49840 whole entry) above

| SMILES | IC50 (human GSK3α; read-out: Enzyme GSK3α (IC50)) [nM] | IC50 (GSK3A) [nM] | IC50 (GSK3B [1]) [nM] | IC50 (GSK3B [2]; read-out: Enzyme GSK3β (IC50)) [nM] | IC50 (human GSK3α; Enzyme GSK3α (IC50)) [nM] | IC50 (GSK3B [2]; Enzyme GSK3β (IC50)) [nM] |
| --- | --- | --- | --- | --- | --- | --- |
| CCOc1cc(C)c(-n2cnc(N)c(C(=O)Nc3cnnc(C(N)=O)c3)c2=O)c(C)c1 [Example 29, 5-(4-amino-1-(4-ethoxy-2,6-dimethylphenyl)-6-oxo-1,6-dihydropyrimidine-5-carboxamido)pyridazine-3-carboxamide] |  | 79.2 | 25000 |  | 92.2 | 3800 |
| COCc1cc(C)c(-n2cnc(N)c(C(=O)Nc3cnnc(C(N)=O)c3)c2=O)c(C)c1 [Example 30, 5-(4-amino-1-(4-(methoxymethyl)-2,6-dimethylphenyl)-6-oxo-1,6-dihydropyrimidine-5-carboxamido)pyridazine-3-carboxamide] | 63.9 | 72.2 | 15800 | 1950 |  |  |
| COc1cc(C)c(-n2cnc(N)c(C(=O)Nc3cccc(C4(N)CCC4)c3)c2=O)c(Cl)c1 [Example 38, 4-amino-N-(3-(1-aminocyclobutyl)phenyl)-1-((S)-2-chloro-4-methoxy-6-methylphenyl)-6-oxo-1,6-dihydropyrimidine-5-carboxamide] | 4.6 | 3.6 | 230 | 282 |  |  |
| Nc1ncn(-c2c(Cl)cccc2Cl)c(=O)c1C(=O)Nc1cncc([C@@H]2CCCN2)c1 [Example 40, (S)-4-amino-1-(2,6-dichlorophenyl)-6-oxo-N-(5-(pyrrolidin-2-yl)pyridin-3-yl)-1,6-dihydropyrimidine-5-carboxamide] | 10.1 | 5.8 | 431 | 418 |  |  |
| Cc1cc(Cl)c(-n2cnc(N)c(C(=O)Nc3cncc([C@@H]4CCCN4)c3)c2=O)c(Cl)c1 [Example 45, (S)-4-amino-1-(2,6-dichloro-4-methylphenyl)-6-oxo-N-(5-(pyrrolidin-2-yl)pyridin-3-yl)-1,6-dihydropyrimidine-5-carboxamide] | 8.5 | 6.6 | 365 | 384 |  |  |
| Nc1ncn(-c2c(Cl)cc(Cl)cc2Cl)c(=O)c1C(=O)Nc1cncc([C@@H]2CCCCN2)c1 [Example 48, (S)-4-amino-6-oxo-N-(5-(piperidin-2-yl)pyridin-3-yl)-1-(2,4,6-trichlorophenyl)-1,6-dihydropyrimidine-5-carboxamide] | 5.2 | 4.7 | 298 | 343 |  |  |
| Nc1ncn(-c2c(Cl)cc(C(F)F)cc2Cl)c(=O)c1C(=O)Nc1cccc([C@@H]2CCCN2)c1 [Example 54, (S)-4-amino-1-(2,6-dichloro-4-(difluoromethyl)phenyl)-6-oxo-N-(3-(pyrrolidin-2-yl)phenyl)-1,6-dihydropyrimidine-5-carboxamide] | 5.4 | 5.4 | 340 | 345 |  |  |
| Nc1ncn(-c2c(Cl)cc(C(F)F)cc2Cl)c(=O)c1C(=O)Nc1cncc([C@@H]2CCCN2)c1 [Example 55, (S)-4-amino-1-(2,6-dichloro-4-(difluoromethyl)phenyl)-6-oxo-N-(5-(pyrrolidin-2-yl)pyridin-3-yl)-1,6-dihydropyrimidine-5-carboxamide] | 9.1 | 6.5 | 483 | 430 |  |  |
| Nc1ncn(-c2c(Cl)cc(C(F)F)cc2Cl)c(=O)c1C(=O)Nc1cncc([C@@H]2CCCCN2)c1 [Example 56, (S)-4-amino-1-(2,6-dichloro-4-(difluoromethyl)phenyl)-6-oxo-N-(5-(piperidin-2-yl)pyridin-3-yl)-1,6-dihydropyrimidine-5-carboxamide] | 5.7 | 4.8 | 273 | 323 |  |  |
| COCc1cc(Cl)c(-n2cnc(N)c(C(=O)Nc3cncc([C@@H]4CCCCN4)c3)c2=O)c(Cl)c1 [Example 61, (S)-4-amino-1-(2,6-dichloro-4-(methoxymethyl)phenyl)-6-oxo-N-(5-(piperidin-2-yl)pyridin-3-yl)-1,6-dihydropyrimidine-5-carboxamide] | 6.4 | 3.7 | 284 | 466 |  |  |

Other lines, results leading:

| IC50 (human GSK3α; read-out: Enzyme GSK3α (IC50)) [nM] | IC50 (GSK3A) [nM] | IC50 (GSK3B [1]) [nM] | IC50 (GSK3B [2]; read-out: Enzyme GSK3β (IC50)) [nM] | IC50 (human GSK3α; Enzyme GSK3α (IC50)) [nM] | IC50 (GSK3B [2]; Enzyme GSK3β (IC50)) [nM] | SMILES |
| --- | --- | --- | --- | --- | --- | --- |
| 13.9 | 7.5 | 715 | 692 |  |  | CCOc1cc(Cl)c(-n2cnc(N)c(C(=O)Nc3cncc(CNCCOC)c3)c2=O)c(Cl)c1 [Example 25, 4-amino-1-(2,6-dichloro-4-ethoxyphenyl)-N-(5-(((2-methoxyethyl)amino)methyl)pyridin-3-yl)-6-oxo-1,6-dihydropyrimidine-5-carboxamide] |
| 5.5 | 4.4 | 269 | 327 |  |  | CCOc1cc(Cl)c(-n2cnc(N)c(C(=O)Nc3cncc(CNCCO)c3)c2=O)c(Cl)c1 [Example 26, 4-amino-1-(2,6-dichloro-4-ethoxyphenyl)-N-(5-(((2-hydroxyethyl)amino)methyl)pyridin-3-yl)-6-oxo-1,6-dihydropyrimidine-5-carboxamide] |
| 9.6 | 9 | 699 | 320 |  |  | CCOc1cc(Cl)c(-n2cnc(N)c(C(=O)Nc3cnnc(C(N)=O)c3)c2=O)c(Cl)c1 [Example 28, 5-(4-amino-1-(2,6-dichloro-4-ethoxyphenyl)-6-oxo-1,6-dihydropyrimidine-5-carboxamido)pyridazine-3-carboxamide] |
| 6.5 | 3.7 | 268 | 344 |  |  | COc1cc(Cl)c(-n2cnc(N)c(C(=O)Nc3cncc([C@@H]4CCCCN4)c3)c2=O)c(Cl)c1 [Example 34, (S)-4-amino-1-(2,6-dichloro-4-methoxyphenyl)-6-oxo-N-(5-(piperidin-2-yl)pyridin-3-yl)-1,6-dihydropyrimidine-5-carboxamide] |
| 10.5 | 7.3 | 395 | 489 |  |  | Nc1ncn(-c2c(Cl)cc(OC(F)F)cc2Cl)c(=O)c1C(=O)Nc1cncc([C@@H]2CCCCN2)c1 [Example 46, (S)-4-amino-1-(2,6-dichloro-4-(difluoromethoxy)phenyl)-6-oxo-N-(5-(piperidin-2-yl)pyridin-3-yl)-1,6-dihydropyrimidine-5-carboxamide] |
| 4.4 | 2.5 | 132 | 209 |  |  | NCc1cncc(NC(=O)c2c(N)ncn(-c3c(Cl)cc(OC4CC4)cc3Cl)c2=O)c1 [Example 52, 4-amino-N-(5-(aminomethyl)pyridin-3-yl)-1-(2,6-dichloro-4-cyclopropoxyphenyl)-6-oxo-1,6-dihydropyrimidine-5-carboxamide] |
| 6.5 | 3 | 200 | 334 |  |  | CCNCc1cncc(NC(=O)c2c(N)ncn(-c3c(Cl)cc(COC)cc3Cl)c2=O)c1 [Example 60, 4-amino-1-(2,6-dichloro-4-(methoxymethyl)phenyl)-N-(5-((ethylamino)methyl)pyridin-3-yl)-6-oxo-1,6-dihydropyrimidine-5-carboxamide] |
| 4.5 | 4.4 | 234 | 209 |  |  | COCc1cc(Cl)c(-n2cnc(N)c(C(=O)Nc3cncc(CNCCO)c3)c2=O)c(Cl)c1 [Example 63, 4-amino-1-(2,6-dichloro-4-(methoxymethyl)phenyl)-N-(5-(((2-hydroxyethyl)amino)methyl)pyridin-3-yl)-6-oxo-1,6-dihydropyrimidine-5-carboxamide] |
| 11.7 | 6.5 | 489 | 621 |  |  | COCc1cc(Cl)c(-n2cnc(N)c(C(=O)Nc3cncc(CNC(C)C)c3)c2=O)c(Cl)c1 [Example 64, 4-amino-1-(2,6-dichloro-4-(methoxymethyl)phenyl)-N-(5-((isopropylamino)methyl)pyridin-3-yl)-6-oxo-1,6-dihydropyrimidine-5-carboxamide] |
| 5.1 | 3.1 | 217 | 302 |  |  | COCc1cc(Cl)c(-n2cnc(N)c(C(=O)Nc3cncc(C4(N)CCC4)c3)c2=O)c(Cl)c1 [Example 65, 4-amino-N-(5-(1-aminocyclobutyl)pyridin-3-yl)-1-(2,6-dichloro-4-(methoxymethyl)phenyl)-6-oxo-1,6-dihydropyrimidine-5-carboxamide] |
| 6.7 | 5.8 | 374 | 318 |  |  | COc1cc(Cl)c(-n2cnc(N)c(C(=O)Nc3cncc([C@@H]4CCCN4)c3)c2=O)c(Cl)c1 [Example 73, (S)-4-amino-1-(2,6-dichloro-4-methoxyphenyl)-6-oxo-N-(5-(pyrrolidin-2-yl)pyridin-3-yl)-1,6-dihydropyrimidine-5-carboxamide] |
| 2.2 | 3.5 | 196 | 152 |  |  | COC[C@@H](N)c1cncc(NC(=O)c2c(N)ncn(-c3c(Cl)cc(OC)cc3Cl)c2=O)c1 [Example 77, (S)-4-amino-N-(5-(1-amino-2-methoxyethyl)pyridin-3-yl)-1-(2,6-dichloro-4-methoxyphenyl)-6-oxo-1,6-dihydropyrimidine-5-carboxamide] |
